Test results reported in paper PMC2790023 (Journal of medicinal chemistry, 2009).
“Also recorded” adds a separate entry of the source.

How the values were obtained:
HeLa cells [1] = test: AnnexinV/PI flow cytometry apoptosis assay; settings: 20 μM, 24 h
CaSki cells = test: AnnexinV/PI flow cytometry apoptosis assay; settings: 20 μM, 24 h
HeLa cells [2] = test: Cell numbers; type: cell-based; settings: 20 μM, 24 h
VHR = VHR (Homo sapiens, UniProt P51452); test: Ki determination, Michaelis-Menten kinetics with pNPP; type: biochemical
VHR, sequence (P51452 whole entry): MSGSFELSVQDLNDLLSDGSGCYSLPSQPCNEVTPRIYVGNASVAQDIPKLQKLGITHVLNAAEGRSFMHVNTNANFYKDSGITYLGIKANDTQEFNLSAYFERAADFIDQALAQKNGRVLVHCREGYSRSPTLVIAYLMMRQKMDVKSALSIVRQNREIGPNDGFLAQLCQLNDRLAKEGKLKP

[3] = system: VHR, PTP1B, CD45, HePTP, Shp2, and YopH; type: biochemical

Structure (SMILES)	Percentage of AnnexinV/PI negative cells versus vehicle (HeLa cells [1])	Percentage of AnnexinV/PI negative cells versus vehicle (CaSki cells)	HeLa cell numbers, percentage of the DMSO control (HeLa cells [2])	Inhibition pattern (Lineweaver-Burk plot) (VHR)	Ki (VHR; Ki, pNPP substrate) [nM]	Selectivity for VHR in counter screen [3]
O=C1/C(=C/c2cn(-c3ccccc3)nc2-c2ccc(OCc3ccccc3Cl)cc2)SC(=S)N1CCS(=O)(=O)O [SA2]	no difference	no difference				
O=C1/C(=C/c2cn(-c3ccccc3)nc2-c2ccc(OCc3ccccc3F)cc2)SC(=S)N1CCS(=O)(=O)O [SA3]	no difference	no difference	less than 50%			
O=C1/C(=C/C=C/c2ccccc2)SC(=S)N1CCS(=O)(=O)O [compound 1, 2-((Z)-4-oxo-5-((E)-3-phenylallylidene)-2-thioxothiazolidin-3-yl)ethane-sulfonic acid]				competitively inhibited VHR; also recorded: clear competitive inhibition pattern	809	selectively inhibiting VHR; also recorded: selective for VHR
COc1ccc(OC)c2c1C(=O)c1ccccc1C2=O [compound 8, 1,4-dimethoxyanthracene-9,10-dione]						selectively inhibiting VHR; also recorded: selective for VHR
